From patent publication US7468366B2, “Cytotoxic agents” (Rutgers, The State University of New Jersey, priority 2001, dated 2008)

**Q.** With `CCCCn1c(=O)c2cc(OC)c(OC)cc2c2nnc3cc4c(cc3c21)OCO4` [Example 10, 2,3-Dimethoxy-8,9-methylenedioxy-11-(n-butyl)-11H-5,6,11-triazachrysen-12-one] as the molecule, how does the melting point read?
**A.** Its melting point is 299 °C.

**Q.** With `CCCCn1c(=O)c2cc(OC)c(OC)cc2c2cnc3cc4c(cc3c21)OCO4` [Example 11, 8,9-Dimethoxy-2,3-methylenedioxy-5-(butyl)-5H-dibenzo[c,h]1,6-naphthyridin-6-one] as the molecule, how does the melting point read?
**A.** Its melting point is 224 °C (dec.).

**Q.** For `COc1cc2c(cc1OC)-c1cnc3cc4c(cc3c1OC2)OCO4` [Example 12, 8,9-Dimethoxy-2,3-methylenedioxy-6H-5-oxa-12-aza-chrysene], which melting point is on record?
**A.** The melting point was 239 to 242 °C (dec.).
